From ChEMBL document CHEMBL3885861, “Open TG-GATES”

Species on record: Rattus norvegicus
Test: Open TG-GATES - Regimen: Daily Repeat
Format: toxicity, organism-based, Sprague-Dawley
Set-up: regimen Daily Repeat, gender Male, age 6 weeks
Conditions: in vivo, po, 200 mg/kg, route gavage, dose level Middle; for APTT / Bas / Eos / Fbg / Hb / Ht / Lym / MCH / MCHC / MCV / Mono / Neu / PT / Plat / RBC / Ret / WBC: tissue Blood; for KIDNEY_L / KIDNEY_R / KIDNEY_TOTAL: tissue Kidney; for LIVER: tissue Liver; for A/G / ALP / ALT / AST / BUN / CRE / Ca / Cl / DBIL / GLC / IP / K / LDH / Na / PL / RALB / TBIL / TC / TG / TP / gamma-GTP: tissue Plasma

`CCOC(=O)[C@H](CCc1ccccc1)N[C@@H](C)C(=O)N1CCC[C@H]1C(=O)O` gave a TERMINAL_BW (72 h, time 3 day) of 240.7 g, an APTT (72 h, time 3 day) of 15.8 s and a Bas (72 h, time 3 day) of 0%. The Eos (72 h, time 3 day) was 1%, the Fbg (72 h, time 3 day) was 231 mg/dL and the Hb (72 h, time 3 day) was 13.2 g/dL. It also gave a Ht (72 h, time 3 day) of 40.1%, a Lym (72 h, time 3 day) of 78% and an MCH (72 h, time 3 day) of 21.9 pg. For the same compound, the MCHC (72 h, time 3 day) was 32.9%, the MCV (72 h, time 3 day) was 66.6 fL and the Mono (72 h, time 3 day) was 8.4%. It also gave a Neu (72 h, time 3 day) of 12.6%, a PT (72 h, time 3 day) of 11.8 s and a Plat (72 h, time 3 day) of 114.3 x10_4/uL. For the same compound, the RBC (72 h, time 3 day) was 601.8 x10_4/ul, the Ret (72 h, time 3 day) was 5.9% and the WBC (72 h, time 3 day) was 85.6 x10_2/uL. It also gave a KIDNEY_L (72 h, time 3 day) of 1.1 g, a KIDNEY_R (72 h, time 3 day) of 1.1 g and a KIDNEY_TOTAL (72 h, time 3 day) of 2.2 g. For the same compound, the LIVER (72 h, time 3 day) was 11.8 g, the A/G (72 h, time 3 day) was 2 and the ALP (72 h, time 3 day) was 912.6 IU/L. For the same compound, the ALT (72 h, time 3 day) was 35 IU/L, the AST (72 h, time 3 day) was 65.2 IU/L and the BUN (72 h, time 3 day) was 19.4 mg/dL. For the same compound, the CRE (72 h, time 3 day) was 0.5 mg/dL, the Ca (72 h, time 3 day) was 11 mg/dL and the Cl (72 h, time 3 day) was 104.4 meq/L. For the same compound, the DBIL (72 h, time 3 day) was 0.03 mg/dL, the GLC (72 h, time 3 day) was 193 mg/dL and the IP (72 h, time 3 day) was 8.7 mg/dL. For the same compound, the K (72 h, time 3 day) was 4.3 meq/L, the LDH (72 h, time 3 day) was 98.2 IU/L and the Na (72 h, time 3 day) was 140.8 meq/L. The PL (72 h, time 3 day) was 146 mg/dL, the RALB (72 h, time 3 day) was 4 g/dL and the TBIL (72 h, time 3 day) was 0.4 mg/dL. For the same compound, the TC (72 h, time 3 day) was 81.4 mg/dL, the TG (72 h, time 3 day) was 81.2 mg/dL and the TP (72 h, time 3 day) was 6 g/dL. The gamma-GTP (72 h, time 3 day) was 1.4 IU/L, the TERMINAL_BW ([…], time 7 day) was 259.9 g and the TERMINAL_BW ([…], time 14 day) was 304.7 g. The TERMINAL_BW ([…], time 28 day) was 336 g, the APTT ([…], time 7 day) was 16.8 s and the Bas ([…], time 7 day) was 0%. The Eos ([…], time 7 day) was 1%, the Fbg ([…], time 7 day) was 228 mg/dL and the Hb ([…], time 7 day) was 13.3 g/dL. It also gave a Ht ([…], time 7 day) of 40.2%, a Lym ([…], time 7 day) of 81.8% and an MCH ([…], time 7 day) of 20.4 pg. It also gave an MCHC ([…], time 7 day) of 33.1%, an MCV ([…], time 7 day) of 61.7 fL and a Mono ([…], time 7 day) of 6.2%. For the same compound, the Neu ([…], time 7 day) was 10.8%, the PT ([…], time 7 day) was 11.6 s and the Plat ([…], time 7 day) was 123.3 x10_4/uL. The RBC ([…], time 7 day) was 651.6 x10_4/ul, the Ret ([…], time 7 day) was 4.1% and the WBC ([…], time 7 day) was 108.2 x10_2/uL. The APTT ([…], time 14 day) was 16.2 s, the Bas ([…], time 14 day) was 0% and the Eos ([…], time 14 day) was 1.2%. The Fbg ([…], time 14 day) was 242.2 mg/dL, the Hb ([…], time 14 day) was 13.4 g/dL and the Ht ([…], time 14 day) was 40.5%. For the same compound, the Lym ([…], time 14 day) was 81%, the MCH ([…], time 14 day) was 20.2 pg and the MCHC ([…], time 14 day) was 33.2%. The MCV ([…], time 14 day) was 60.8 fL, the Mono ([…], time 14 day) was 6% and the Neu ([…], time 14 day) was 12%. It also gave a PT ([…], time 14 day) of 11.5 s, a Plat ([…], time 14 day) of 113 x10_4/uL and an RBC ([…], time 14 day) of 666.8 x10_4/ul. It also gave a Ret ([…], time 14 day) of 3.6%, a WBC ([…], time 14 day) of 116.4 x10_2/uL and an APTT ([…], time 28 day) of 15.5 s. The Bas ([…], time 28 day) was 0%, the Eos ([…], time 28 day) was 1% and the Fbg ([…], time 28 day) was 240.2 mg/dL. The Hb ([…], time 28 day) was 14.3 g/dL, the Ht ([…], time 28 day) was 42.9% and the Lym ([…], time 28 day) was 87.4%. It also gave an MCH ([…], time 28 day) of 19 pg, an MCHC ([…], time 28 day) of 33.3% and an MCV ([…], time 28 day) of 57.1 fL. For the same compound, the Mono ([…], time 28 day) was 4.2%, the Neu ([…], time 28 day) was 7.4% and the PT ([…], time 28 day) was 11.8 s. It also gave a Plat ([…], time 28 day) of 101.7 x10_4/uL, an RBC ([…], time 28 day) of 752.2 x10_4/ul and a Ret ([…], time 28 day) of 3.4%. For the same compound, the WBC ([…], time 28 day) was 172.8 x10_2/uL, the KIDNEY_L ([…], time 7 day) was 1.2 g and the KIDNEY_R ([…], time 7 day) was 1.2 g. For the same compound, the KIDNEY_TOTAL ([…], time 7 day) was 2.4 g, the KIDNEY_L ([…], time 14 day) was 1.3 g and the KIDNEY_R ([…], time 14 day) was 1.3 g. For the same compound, the KIDNEY_TOTAL ([…], time 14 day) was 2.6 g, the KIDNEY_L ([…], time 28 day) was 1.4 g and the KIDNEY_R ([…], time 28 day) was 1.4 g. For the same compound, the KIDNEY_TOTAL ([…], time 28 day) was 2.9 g, the LIVER ([…], time 7 day) was 11.6 g and the LIVER ([…], time 14 day) was 12.7 g. For the same compound, the LIVER ([…], time 28 day) was 12.8 g, the A/G ([…], time 7 day) was 2.2 and the ALP ([…], time 7 day) was 881.8 IU/L. It also gave an ALT ([…], time 7 day) of 27.4 IU/L, an AST ([…], time 7 day) of 56.8 IU/L and a BUN ([…], time 7 day) of 24 mg/dL. For the same compound, the CRE ([…], time 7 day) was 0.5 mg/dL, the Ca ([…], time 7 day) was 10.3 mg/dL and the Cl ([…], time 7 day) was 104.4 meq/L. The DBIL ([…], time 7 day) was 0.002 mg/dL, the GLC ([…], time 7 day) was 207.4 mg/dL and the IP ([…], time 7 day) was 8.4 mg/dL. It also gave a K ([…], time 7 day) of 4.7 meq/L, an LDH ([…], time 7 day) of 88.8 IU/L and a Na ([…], time 7 day) of 136.6 meq/L. The PL ([…], time 7 day) was 141.6 mg/dL, the RALB ([…], time 7 day) was 3.9 g/dL and the TBIL ([…], time 7 day) was 0.4 mg/dL. For the same compound, the TC ([…], time 7 day) was 74.6 mg/dL, the TG ([…], time 7 day) was 81.8 mg/dL and the TP ([…], time 7 day) was 5.7 g/dL. It also gave a gamma-GTP ([…], time 7 day) of 1.4 IU/L, an A/G ([…], time 14 day) of 1.9 and an ALP ([…], time 14 day) of 760.4 IU/L. The ALT ([…], time 14 day) was 28.4 IU/L, the AST ([…], time 14 day) was 57.2 IU/L and the BUN ([…], time 14 day) was 27.6 mg/dL. It also gave a CRE ([…], time 14 day) of 0.6 mg/dL, a Ca ([…], time 14 day) of 10.8 mg/dL and a Cl ([…], time 14 day) of 105.6 meq/L. The DBIL ([…], time 14 day) was 0.008 mg/dL, the GLC ([…], time 14 day) was 194.8 mg/dL and the IP ([…], time 14 day) was 8.3 mg/dL. The K ([…], time 14 day) was 4.6 meq/L, the LDH ([…], time 14 day) was 86.2 IU/L and the Na ([…], time 14 day) was 138 meq/L. It also gave a PL ([…], time 14 day) of 154.8 mg/dL, an RALB ([…], time 14 day) of 3.9 g/dL and a TBIL ([…], time 14 day) of 0.3 mg/dL. For the same compound, the TC ([…], time 14 day) was 83 mg/dL, the TG ([…], time 14 day) was 83.2 mg/dL and the TP ([…], time 14 day) was 6.1 g/dL. The gamma-GTP ([…], time 14 day) was 1.2 IU/L, the A/G ([…], time 28 day) was 1.8 and the ALP ([…], time 28 day) was 617.8 IU/L. For the same compound, the ALT ([…], time 28 day) was 24 IU/L, the AST ([…], time 28 day) was 55.4 IU/L and the BUN ([…], time 28 day) was 45.2 mg/dL. For the same compound, the CRE ([…], time 28 day) was 0.7 mg/dL, the Ca ([…], time 28 day) was 10.2 mg/dL and the Cl ([…], time 28 day) was 105.8 meq/L. The DBIL ([…], time 28 day) was 0.078 mg/dL, the GLC ([…], time 28 day) was 206 mg/dL and the IP ([…], time 28 day) was 7.5 mg/dL. For the same compound, the K ([…], time 28 day) was 4.8 meq/L, the LDH ([…], time 28 day) was 62.4 IU/L and the Na ([…], time 28 day) was 137.6 meq/L. The PL ([…], time 28 day) was 145.6 mg/dL, the RALB ([…], time 28 day) was 3.8 g/dL and the TBIL ([…], time 28 day) was 0.3 mg/dL. For the same compound, the TC ([…], time 28 day) was 77 mg/dL, the TG ([…], time 28 day) was 87.2 mg/dL and the TP ([…], time 28 day) was 5.9 g/dL. For the same compound, the gamma-GTP ([…], time 28 day) was 2.2 IU/L.
